Reference: patent US8546579B2, “Bicycloheteroaryl compounds as P2X7 modulators and uses thereof” (Evotec (US) Inc., priority 2006, dated 2013)

target: T1, P2X7 receptor (Homo sapiens, UniProt Q99572); test: IL-1β release assay in differentiated THP-1 cells stimulated with BzATP (Example 9); type: cell-based; design: inhibition: dose or concentration left out as unconfirmed; details: THP-1; read-out: IL-1β % Inhib.
T1 construct: host or cells: THP-1 cells differentiated with LPS and IFN-γ
T1 sequence (Q99572 1-595): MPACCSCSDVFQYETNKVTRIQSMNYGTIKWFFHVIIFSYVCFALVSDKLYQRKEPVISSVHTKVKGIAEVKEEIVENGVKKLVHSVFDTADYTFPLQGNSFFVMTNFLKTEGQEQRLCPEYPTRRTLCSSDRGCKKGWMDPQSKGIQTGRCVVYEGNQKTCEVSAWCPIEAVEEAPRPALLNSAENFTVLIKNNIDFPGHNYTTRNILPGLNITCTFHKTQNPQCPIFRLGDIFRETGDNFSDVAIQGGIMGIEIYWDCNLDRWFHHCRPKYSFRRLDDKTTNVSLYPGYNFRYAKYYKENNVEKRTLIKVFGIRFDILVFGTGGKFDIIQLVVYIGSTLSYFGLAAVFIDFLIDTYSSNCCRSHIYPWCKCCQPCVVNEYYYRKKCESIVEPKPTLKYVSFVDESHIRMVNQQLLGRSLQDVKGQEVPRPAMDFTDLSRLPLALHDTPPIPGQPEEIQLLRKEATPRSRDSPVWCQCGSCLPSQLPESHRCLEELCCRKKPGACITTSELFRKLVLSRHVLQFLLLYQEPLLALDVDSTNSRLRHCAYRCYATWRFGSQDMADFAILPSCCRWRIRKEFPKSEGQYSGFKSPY
Summary of the method: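 THP-1 cells differentiated 16 h with LPS and IFN-γ (100 ng/mL each), re-primed 2 h with LPS, then compound-pretreated 30 min before 250 uM BzATP for 45 min. Supernatant IL-1β quantified by ELISA; background-adjusted percent inhibition fitted to four-parameter logistic for IC50.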

Row | SMILES | inhibition [%]
1 | Cc1ccc(C(=O)Nc2cccc3c(=O)n(Cc4cccnc4)ccc23)cc1Cl [Compound 1451] | 0 to 25
2 | Cc1cc(Cl)ccc1C(=O)Nc1cccc2c(=O)n(Cc3cccnc3)ccc12 [Compound 1452] | 0 to 25
3 | O=C(Cc1csc2ccccc12)Nc1cccc2c(=O)n(Cc3cccnc3)ccc12 [Compound 1453] | 0 to 25
4 | Cc1cc(C(=O)Nc2cccc3c(=O)n(Cc4cccnc4)ccc23)ccc1F [Compound 1454] | 0 to 25
5 | O=C(CCc1ccc(Cl)cc1)Nc1cccc2c(=O)n(Cc3cccnc3)ccc12 [Compound 1455] | 0 to 25
6 | COc1ccc(C(=O)Nc2cccc3c(=O)n(CC4CCN(C)CC4)ccc23)c(C)c1 [Compound 1456] | 0 to 25
7 | Cc1ccccc1CCC(=O)Nc1cccc2c(=O)n(CC3CCN(C)CC3)ccc12 [Compound 1457] | 0 to 25
8 | CN1CCC(Cn2ccc3c(NC(=O)c4ccc(-c5ccccc5)o4)cccc3c2=O)CC1 [Compound 1458] | 0 to 25
9 | COc1cccc(CCC(=O)Nc2cccc3c(=O)n(CC4CCN(C)CC4)ccc23)c1 [Compound 1459] | 26 to 50
10 | CN1CCC(Cn2ccc3c(NC(=O)c4ccc(Cl)cc4Cl)cccc3c2=O)CC1 [Compound 1460] | 0 to 25
11 | Cc1cccc(C(=O)Nc2cccc3c(=O)n(CC4CCN(C)CC4)ccc23)c1C [Compound 1461] | 0 to 25
12 | Cc1ccc(C(=O)Nc2cccc3c(=O)n(CC4CCN(C)CC4)ccc23)c(C)c1 [Compound 1462] | 0 to 25
13 | Cc1ccc(C)c(C(=O)Nc2cccc3c(=O)n(CC4CCN(C)CC4)ccc23)c1 [Compound 1463] | 0 to 25
14 | COc1cc(OC)cc(C(=O)Nc2cccc3c(=O)n(CC4CCN(C)CC4)ccc23)c1 [Compound 1464] | 0 to 25
15 | Cc1cccc(C(=O)Nc2cccc3c(=O)n(CC4CCN(C)CC4)ccc23)c1 [Compound 1465] | 0 to 25
16 | CC(C(=O)Nc1cccc2c(=O)n(CC3CCN(C)CC3)ccc12)c1ccccc1 (stereo not shown) [Compound 1466] | 0 to 25
17 | COc1ccccc1CCC(=O)Nc1cccc2c(=O)n(CC3CCN(C)CC3)ccc12 [Compound 1467] | 0 to 25
18 | COc1ccc(CCC(=O)Nc2cccc3c(=O)n(CC4CCN(C)CC4)ccc23)cc1 [Compound 1468] | 0 to 25
19 | CN1CCC(Cn2ccc3c(NC(=O)c4cccc5ccccc45)cccc3c2=O)CC1 [Compound 1469] | 0 to 25
20 | CN1CCC(Cn2ccc3c(NC(=O)Cc4cccc5ccccc45)cccc3c2=O)CC1 [Compound 1470] | 0 to 25

Row | SMILES | inhibition [%]
21 | CN1CCC(Cn2ccc3c(NC(=O)c4ccc5ccccc5c4)cccc3c2=O)CC1 [Compound 1471] | 0 to 25
22 | COc1ccc(OC)c(CC(=O)Nc2cccc3c(=O)n(CC4CCN(C)CC4)ccc23)c1 [Compound 1472] | 0 to 25
23 | COc1ccc(CC(=O)Nc2cccc3c(=O)n(CC4CCN(C)CC4)ccc23)cc1OC [Compound 1473] | 0 to 25
24 | COc1ccc(CC(=O)Nc2cccc3c(=O)n(CC4CCN(C)CC4)ccc23)cc1 [Compound 1474] | 0 to 25
25 | CN1CCC(Cn2ccc3c(NC(=O)CCCc4ccccc4)cccc3c2=O)CC1 [Compound 1475] | 0 to 25
26 | COc1cc(CC(=O)Nc2cccc3c(=O)n(CC4CCN(C)CC4)ccc23)cc(OC)c1 [Compound 1477] | 0 to 25
27 | Cc1cc(Cl)ccc1C(=O)Nc1cccc2c(=O)n(CC3CCN(C)CC3)ccc12 [Compound 1478] | 0 to 25
28 | CN1CCC(Cn2ccc3c(NC(=O)CC4CC5CC[C@H]4C5)cccc3c2=O)CC1 (stereo partly shown) [Compound 1479] | 0 to 25
29 | CN1CCC(Cn2ccc3c(NC(=O)c4ccc5c(c4)OCCCO5)cccc3c2=O)CC1 [Compound 1480] | 0 to 25
30 | Cc1c(Cl)cccc1C(=O)Nc1cccc2c(=O)n(CC3CCN(C)CC3)ccc12 [Compound 1481] | 0 to 25
31 | Cc1cc(C)cc(CC(=O)Nc2cccc3c(=O)n(CC4CCN(C)CC4)ccc23)c1 [Compound 1482] | 26 to 50
32 | CN1CCC(Cn2ccc3c(NC(=O)C4C[C@@H]5CC[C@H]4C5)cccc3c2=O)CC1 (stereo partly shown) [Compound 1483] | 26 to 50
33 | COc1ccc(CC(=O)Nc2cccc3c(=O)n(CC4CCN(C)CC4)ccc23)c(OC)c1 [Compound 1484] | 0 to 25
34 | CN1CCC(Cn2ccc3c(NC(=O)CCc4ccc(Cl)cc4)cccc3c2=O)CC1 [Compound 1485] | 0 to 25
35 | Cc1ccc(Cl)c(C(=O)Nc2cccc3c(=O)n(CC4CCN(C)CC4)ccc23)c1 [Compound 1486] | 0 to 25
36 | Cc1ccc(Cl)cc1C(=O)Nc1cccc2c(=O)n(CC3CCN(C)CC3)ccc12 [Compound 1487] | 0 to 25
37 | Cc1cccc(CCC(=O)Nc2cccc3c(=O)n(CC4CCN(C)CC4)ccc23)c1 [Compound 1488] | 0 to 25
38 | Cc1cccc(C(=O)Nc2cccc3c(=O)n(CC4CCN(C)CC4)ccc23)c1Cl [Compound 1489] | 0 to 25
39 | COc1ccc(C(=O)Nc2cccc3c(=O)n(CC4CCN(C)CC4)ccc23)cc1C [Compound 1490] | 0 to 25
40 | Cc1ccc(CCC(=O)Nc2cccc3c(=O)n(CC4CCN(C)CC4)ccc23)c(C)c1 [Compound 1491] | 0 to 25

Further lines, results first:

Row | inhibition [%] | SMILES
41 | 0 to 25 | CN1CCC(Cn2ccc3c(NC(=O)CCc4cccc(Cl)c4)cccc3c2=O)CC1 [Compound 1492]
42 | 0 to 25 | COc1ccc(C(=O)Nc2cccc3c(=O)n(CCCN4CCCC4=O)ccc23)c(C)c1 [Compound 1493]
43 | 0 to 25 | C[C@H]1CC[C@H](C(=O)Nc2cccc3c(=O)n(CCCN4CCCC4=O)ccc23)CC1 [Compound 1494]
44 | 0 to 25 | Cc1ccccc1CCC(=O)Nc1cccc2c(=O)n(CCCN3CCCC3=O)ccc12 [Compound 1495]
45 | 0 to 25 | O=C(Nc1cccc2c(=O)n(CCCN3CCCC3=O)ccc12)c1ccc(-c2ccccc2)o1 [Compound 1496]
46 | 26 to 50 | COc1cccc(CCC(=O)Nc2cccc3c(=O)n(CCCN4CCCC4=O)ccc23)c1 [Compound 1497]
47 | 0 to 25 | Cc1cc(C)c(CC(=O)Nc2cccc3c(=O)n(CCCN4CCCC4=O)ccc23)c(C)c1 [Compound 1498]
48 | 0 to 25 | Cc1ccc(C)c(CC(=O)Nc2cccc3c(=O)n(CCCN4CCCC4=O)ccc23)c1 [Compound 1499]
49 | 0 to 25 | COc1ccc(C(=O)Nc2cccc3c(=O)n(CCCN4CCCC4=O)ccc23)cc1Cl [Compound 1500]
50 | 0 to 25 | O=C(CCc1ccccc1Cl)Nc1cccc2c(=O)n(CCCN3CCCC3=O)ccc12 [Compound 1501]
51 | 0 to 25 | O=C(CCc1ccc2c(c1)OCO2)Nc1cccc2c(=O)n(CCCN3CCCC3=O)ccc12 [Compound 1502]
52 | 0 to 25 | Cc1cc(C(=O)Nc2cccc3c(=O)n(CCCN4CCCC4=O)ccc23)ccc1Cl [Compound 1503]
53 | 51 to 75 | O=C(Nc1cccc2c(=O)n(CCCN3CCCC3=O)ccc12)c1ccccc1Cl [Compound 1504]
54 | 26 to 50 | O=C(Nc1cccc2c(=O)n(CCCN3CCCC3=O)ccc12)c1ccc(Cl)cc1Cl [Compound 1505]
55 | 0 to 25 | Cc1ccccc1C(=O)Nc1cccc2c(=O)n(CCCN3CCCC3=O)ccc12 [Compound 1507]
56 | 0 to 25 | Cc1cccc(C(=O)Nc2cccc3c(=O)n(CCCN4CCCC4=O)ccc23)c1C [Compound 1508]
57 | 0 to 25 | Cc1ccc(C(=O)Nc2cccc3c(=O)n(CCCN4CCCC4=O)ccc23)c(C)c1 [Compound 1509]
58 | 0 to 25 | Cc1ccc(C)c(C(=O)Nc2cccc3c(=O)n(CCCN4CCCC4=O)ccc23)c1 [Compound 1510]
59 | 0 to 25 | O=C(Nc1cccc2c(=O)n(CCCN3CCCC3=O)ccc12)c1cc(Cl)cc(Cl)c1 [Compound 1511]
60 | 0 to 25 | COc1cc(OC)cc(C(=O)Nc2cccc3c(=O)n(CCCN4CCCC4=O)ccc23)c1 [Compound 1512]
61 | 0 to 25 | Cc1cccc(C(=O)Nc2cccc3c(=O)n(CCCN4CCCC4=O)ccc23)c1 [Compound 1513]
62 | 0 to 25 | CCOc1ccc(C(=O)Nc2cccc3c(=O)n(CCCN4CCCC4=O)ccc23)cc1 [Compound 1514]
63 | 0 to 25 | O=C(Nc1cccc2c(=O)n(CCCN3CCCC3=O)ccc12)c1ccc(-c2ccccc2)cc1 [Compound 1515]
64 | 0 to 25 | CC(C)(C)c1ccc(C(=O)Nc2cccc3c(=O)n(CCCN4CCCC4=O)ccc23)cc1 [Compound 1516]
65 | 0 to 25 | CC(C(=O)Nc1cccc2c(=O)n(CCCN3CCCC3=O)ccc12)c1ccccc1 (stereo not shown) [Compound 1517]
66 | 0 to 25 | COc1ccccc1CCC(=O)Nc1cccc2c(=O)n(CCCN3CCCC3=O)ccc12 [Compound 1518]
67 | 0 to 25 | O=C(Cc1ccccc1Cl)Nc1cccc2c(=O)n(CCCN3CCCC3=O)ccc12 [Compound 1519]
68 | 0 to 25 | COc1ccc(CC(=O)Nc2cccc3c(=O)n(CCCN4CCCC4=O)ccc23)cc1OC [Compound 1520]
69 | 0 to 25 | Cc1cccc(CC(=O)Nc2cccc3c(=O)n(CCCN4CCCC4=O)ccc23)c1 [Compound 1521]
70 | 0 to 25 | COc1ccc(CC(=O)Nc2cccc3c(=O)n(CCCN4CCCC4=O)ccc23)cc1 [Compound 1522]
